Assay results as given in PubChem BioAssay (NCI).
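Where inhibition never reached the appropriate level, the endpoint shown equals the highest concentration tested. Otherwise, values were interpolated linearly from a five-concentration, 48-hour dose response in 96-well plates. The concentration for full growth arrest is given as TGI.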

Assays:
Assay in all cases: NCI anticancer screen, dose series, 48 h
CCRF-CEM leukemia = test system: CCRF-CEM leukemia
HCT-15 colon = test system: HCT-15 colon
OVCAR-3 ovarian = test system: OVCAR-3 ovarian
ACHN renal = test system: ACHN renal
MDA-N = test system: MDA-N
A549 NSCLC = test system: A549 NSCLC
SF-268 CNS = test system: SF-268 CNS
HOP-62 NSCLC = test system: HOP-62 NSCLC
COLO 205 colon = test system: COLO 205 colon
SNB-19 CNS = test system: SNB-19 CNS
K-562 leukemia = test system: K-562 leukemia
T-47D breast = test system: T-47D breast
OVCAR-5 ovarian = test system: OVCAR-5 ovarian
NCI-H460 lung = test system: NCI-H460 lung
NCI/ADR-RES ovarian = test system: NCI/ADR-RES ovarian
786-0 renal = test system: 786-0 renal
UACC-257 melanoma = test system: UACC-257 melanoma
SK-OV-3 ovarian = test system: SK-OV-3 ovarian
HL-60(TB) leukemia = test system: HL-60(TB) leukemia
IGROV1 ovarian = test system: IGROV1 ovarian
HT29 colon = test system: HT29 colon
SNB-75 CNS = test system: SNB-75 CNS
HCC-2998 colon = test system: HCC-2998 colon
NCI-H226 lung = test system: NCI-H226 lung
HCT-116 colon = test system: HCT-116 colon
OVCAR-8 ovarian = test system: OVCAR-8 ovarian
OVCAR-4 ovarian = test system: OVCAR-4 ovarian
SK-MEL-28 melanoma = test system: SK-MEL-28 melanoma
SK-MEL-5 melanoma = test system: SK-MEL-5 melanoma
A498 renal = test system: A498 renal
CAKI-1 renal = test system: CAKI-1 renal
DU-145 prostate = test system: DU-145 prostate
LOX IMVI melanoma = test system: LOX IMVI melanoma
RPMI-8226 leukemia = test system: RPMI-8226 leukemia
U251 CNS = test system: U251 CNS
HS 578T breast = test system: HS 578T breast
UACC-62 melanoma = test system: UACC-62 melanoma
RXF 393 renal = test system: RXF 393 renal
PC-3 prostate = test system: PC-3 prostate
MDA-MB-435 = test system: MDA-MB-435
SR leukemia = test system: SR leukemia
MCF7 breast = test system: MCF7 breast
HOP-92 NSCLC = test system: HOP-92 NSCLC
M14 melanoma = test system: M14 melanoma
BT-549 breast = test system: BT-549 breast
SF-539 CNS = test system: SF-539 CNS
MDA-MB-231 breast = test system: MDA-MB-231 breast
NCI-H23 lung = test system: NCI-H23 lung
SN12C renal = test system: SN12C renal
KM12 colon = test system: KM12 colon
SW-620 colon = test system: SW-620 colon
MOLT-4 leukemia = test system: MOLT-4 leukemia
SK-MEL-2 melanoma = test system: SK-MEL-2 melanoma

Measured: TGI

C#C[C@]1(O)CC[C@H]2[C@@H]3CCC4=C/C(=N/NC(=O)c5cccc6cc7ccccc7nc56)CC[C@@H]4[C@H]3CC[C@@]21CC
> 100 µM: CCRF-CEM leukemia | HCT-15 colon | OVCAR-3 ovarian | ACHN renal | MDA-N | A549 NSCLC | SF-268 CNS | HOP-62 NSCLC | COLO 205 colon | SNB-19 CNS | K-562 leukemia | OVCAR-5 ovarian | NCI-H460 lung | NCI/ADR-RES ovarian | 786-0 renal | UACC-257 melanoma | SK-OV-3 ovarian | HL-60(TB) leukemia | IGROV1 ovarian | HT29 colon | SNB-75 CNS | HCC-2998 colon | NCI-H226 lung | HCT-116 colon | OVCAR-8 ovarian | OVCAR-4 ovarian | SK-MEL-28 melanoma | A498 renal | CAKI-1 renal | DU-145 prostate | LOX IMVI melanoma | RPMI-8226 leukemia | U251 CNS | HS 578T breast | UACC-62 melanoma | RXF 393 renal | PC-3 prostate | MDA-MB-435 | SR leukemia | MCF7 breast | HOP-92 NSCLC | M14 melanoma | BT-549 breast | SF-539 CNS | MDA-MB-231 breast | NCI-H23 lung | SN12C renal | KM12 colon | SW-620 colon | MOLT-4 leukemia | SK-MEL-2 melanoma
66.2 µM: T-47D breast
63.7 µM: SK-MEL-5 melanoma
